Results from US20180194762A1 (Pharmacyclics LLC, priority 2017, published 2018).
pIC50: −log10 of the molar value. Read-outs that look alike come from different tables or passages of the source.

What was measured:
Type in all cases: biochemical
[1] = target: T1, Btk (Homo sapiens, UniProt Q06187); experiment: Btk in vitro inhibitory activity (one of Method A TR-FRET, Method B electrophoretic mobility shift, Method C radiometric filter binding)
T1 construct: purified from insect cells as a full-length construct containing a N-terminal 6X-His tag; His6 (N); made in house; host or cells: insect cells (Method C)
Procedure, shortened: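 Method A: TR-FRET with 0.5 nM Btk at [ATP]=Km, EDTA-quenched, 665/615 nm ratio; Ki(app) converted to IC50. Method B: 1 nM full-length His6 human BTK, 1 μM FAM peptide, pH 7.5, mobility-shift product/sum ratio, 12-point 4-parameter fit. Method C: radiometric filter binding, 8 nM His-tagged BTK, 0.2 mg/mL poly-Glu-Tyr.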

[2] = target: T2, TEC (Homo sapiens, UniProt P42680); experiment: Inhibition of a panel of kinases (in vitro HotSpot kinase assay, 33P-ATP, 1 μM ATP); conditions: for pIC50: HotSpot kinase assay, 1 μM ATP; for TEC/Btk: ratio of TEC IC50 to Btk IC50 (selectivity)
T2 sequence (P42680 1-631): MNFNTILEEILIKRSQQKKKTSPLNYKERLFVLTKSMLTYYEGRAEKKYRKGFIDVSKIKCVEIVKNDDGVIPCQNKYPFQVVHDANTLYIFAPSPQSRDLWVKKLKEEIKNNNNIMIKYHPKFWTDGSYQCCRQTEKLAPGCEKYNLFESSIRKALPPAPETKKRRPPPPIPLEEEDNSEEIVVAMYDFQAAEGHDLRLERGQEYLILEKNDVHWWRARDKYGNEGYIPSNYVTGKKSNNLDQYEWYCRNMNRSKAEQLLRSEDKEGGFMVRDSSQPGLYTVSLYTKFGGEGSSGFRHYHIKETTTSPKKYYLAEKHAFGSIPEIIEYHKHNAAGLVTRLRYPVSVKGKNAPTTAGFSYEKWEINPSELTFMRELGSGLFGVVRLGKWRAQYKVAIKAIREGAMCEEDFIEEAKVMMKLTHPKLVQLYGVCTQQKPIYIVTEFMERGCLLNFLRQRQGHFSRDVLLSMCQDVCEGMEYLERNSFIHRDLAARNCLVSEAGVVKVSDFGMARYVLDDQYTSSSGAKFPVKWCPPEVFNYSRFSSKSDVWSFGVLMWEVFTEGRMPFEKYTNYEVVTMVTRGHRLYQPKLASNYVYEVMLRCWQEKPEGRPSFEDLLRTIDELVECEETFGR
Procedure, shortened: (§1)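 Degree of kinase inhibition is determined in vitro using isolated enzymes, a matched substrate and radiolabelled ATP (1 μM).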

[3] = target: T3, panel of kinases (Homo sapiens, UniProt P51813); experiment: Inhibition of a panel of kinases (in vitro HotSpot kinase assay, 33P-ATP, 1 μM ATP), other kinases; conditions: BMX wild-type, read-out: BMX-WT IC50
T3 sequence (P51813 1-675): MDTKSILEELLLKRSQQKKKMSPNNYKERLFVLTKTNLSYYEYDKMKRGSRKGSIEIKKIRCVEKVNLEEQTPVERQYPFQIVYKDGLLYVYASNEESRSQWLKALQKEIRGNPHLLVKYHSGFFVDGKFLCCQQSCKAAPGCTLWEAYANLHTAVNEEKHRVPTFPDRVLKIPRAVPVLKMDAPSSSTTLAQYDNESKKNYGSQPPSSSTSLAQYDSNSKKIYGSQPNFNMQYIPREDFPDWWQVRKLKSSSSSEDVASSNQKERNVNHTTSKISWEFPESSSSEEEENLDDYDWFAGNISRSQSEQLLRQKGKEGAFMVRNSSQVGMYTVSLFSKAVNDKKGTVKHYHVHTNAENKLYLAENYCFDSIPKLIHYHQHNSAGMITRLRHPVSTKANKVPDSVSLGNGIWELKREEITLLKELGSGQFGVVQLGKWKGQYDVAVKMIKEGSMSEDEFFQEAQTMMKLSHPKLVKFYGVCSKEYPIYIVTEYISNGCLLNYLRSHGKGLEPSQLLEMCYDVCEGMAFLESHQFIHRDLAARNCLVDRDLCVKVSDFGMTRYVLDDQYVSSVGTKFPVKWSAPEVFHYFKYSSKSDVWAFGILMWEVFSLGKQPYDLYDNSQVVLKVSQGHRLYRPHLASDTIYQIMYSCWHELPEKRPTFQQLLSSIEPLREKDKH
Procedure, shortened: as §1

[4] = wild-type Btk, read-out: Btk-WT IC50
[5] = method is one of A, B or C, not stated which, read-out: IC50 values against Btk

T1 sequence (Q06187 whole entry): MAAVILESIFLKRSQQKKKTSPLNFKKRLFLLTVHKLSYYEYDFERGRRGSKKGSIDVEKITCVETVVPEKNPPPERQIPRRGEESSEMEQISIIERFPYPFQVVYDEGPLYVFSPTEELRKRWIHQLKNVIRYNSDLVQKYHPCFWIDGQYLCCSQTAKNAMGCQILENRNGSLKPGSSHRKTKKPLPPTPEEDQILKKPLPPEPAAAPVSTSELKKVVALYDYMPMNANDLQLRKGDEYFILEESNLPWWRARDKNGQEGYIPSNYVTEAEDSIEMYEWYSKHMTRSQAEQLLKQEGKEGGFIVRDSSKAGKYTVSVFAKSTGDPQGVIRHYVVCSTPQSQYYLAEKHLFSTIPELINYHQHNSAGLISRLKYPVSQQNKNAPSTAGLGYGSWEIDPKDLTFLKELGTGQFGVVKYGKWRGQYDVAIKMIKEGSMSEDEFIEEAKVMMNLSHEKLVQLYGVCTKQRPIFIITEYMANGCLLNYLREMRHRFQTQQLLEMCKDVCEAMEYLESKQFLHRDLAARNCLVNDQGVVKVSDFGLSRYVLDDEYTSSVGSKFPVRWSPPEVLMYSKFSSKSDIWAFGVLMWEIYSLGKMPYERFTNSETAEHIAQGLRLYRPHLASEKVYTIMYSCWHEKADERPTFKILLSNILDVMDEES

| pIC50 [1, 4] | pIC50 [2] | pIC50 [3] | TEC/Btk [2] | pIC50 [1, 5] | Structure (SMILES) |
| --- | --- | --- | --- | --- | --- |
| 8.33 | 5.83 | 5.94 | – | – | CC(=O)N[C@@H]1CCN(c2n[nH]c3nccc(-c4ccc(CNC(=O)c5noc(C(C)C)n5)c(F)c4)c23)C1 [Example 369, N-[(4-{3-[(3R)-3-acetamidopyrrolidin-1-yl]-1H-pyrazolo[3,4-b]pyridin-4-yl}-2-fluorophenyl)methyl]-5-(propan-2-yl)-1,2,4-oxadiazole-3-carboxamide] |
| 8.49 | 5.53 | 5.13 | 925 | – | CC(C)(C)c1nc(C(=O)NCc2ccc(-c3ccnc4[nH]nc(N[C@H]5CCNC5)c34)cc2F)no1 [Compound 50, 5-tert-butyl-N-{[2-fluoro-4-(3-{[(3S)-pyrrolidin-3-yl]amino}-1H-pyrazolo[3,4-b]pyridin-4-yl)phenyl]methyl}-1,2,4-oxadiazole-3-carboxamide] |
| 7.05 | < 5.00 | < 5.00 | >100 | – | C[C@@H]1[C@H](Nc2n[nH]c3nccc(-c4ccc(CNC(=O)c5noc(C(C)(C)C)n5)c(F)c4)c23)CCCN1C(=O)N(C)C [Example 125, (2R,3R)-3-{[4-(4-{[(5-tert-butyl-1,2,4-oxadiaozl-3-yl) formamido]methyl}-3-fluorophenyl)-1H-pyrazolo[3,4-b]pyridin-3-yl]amino}-N,N,2-trimethylpiperidine-1-carboxamide] |
| 9.22 | 6.14 | 5.93 | 1207 | > 8.00 | CC(C)(C)c1noc(C(=O)NCc2ccc(-c3ccnc4[nH]nc(N5CCC(N)CC5)c34)cc2F)n1 [Example 178, N-({4-[3-(4-aminopiperidin-1-yl)-1H-pyrazolo[3,4-b]pyridin-4-yl]-2-fluorophenyl}methyl)-3-tert-butyl-1,2,4-oxadiazole-5-carboxamide] |
| 9.66 | 7.02 | 6.91 | 434 | > 8.00 | C=CC(=O)N[C@@H]1CCN(c2n[nH]c3nccc(-c4ccc(CNC(=O)c5ccc(C(C)(C)C)cc5)c(F)c4)c23)C1 [Example 101, 4-tert-butyl-N-[(2-fluoro-4-{3-[(3R)-3-(prop-2-enamido)pyrrolidin-1-yl]-1H-pyrazolo[3,4-b]pyridin-4-yl}phenyl)methyl]benzamide] |
| 10.10 | 7.38 | 7.11 | 529 | > 8.00 | C=CC(=O)N1CC[C@@H](Nc2n[nH]c3nccc(-c4ccc(CNC(=O)c5cc(C(C)(C)C)on5)c(F)c4)c23)C1 [Example 65, 5-tert-butyl-N-{[2-fluoro-4-(3-{[(3R)-1-(prop-2-enoyl)pyrrolidin-3-yl]amino}-1H-pyrazolo [3,4-b]pyridin-4-yl)phenyl]methyl}-1,2-oxazole-3-carboxamide] |
| 6.74 | < 5.00 | < 5.00 | >100 | – | CC(C)(C)c1nc(C(=O)NC2(c3ccc(-c4ccnc5[nH]nc(N[C@@H]6CCCNC6)c45)cc3)CC2)no1 [Example 70, 5-tert-butyl-N-{1-[4-(3-{[(3R)-piperidin-3-yl]amino}-1H-pyrazolo[3,4-b]pyridin-4-yl)phenyl]cyclopropyl}-1,2,4-oxaidazole-3-carboxamide] |
| 7.55 | 5.67 | 5.52 | – | – | C[C@H]1CC[C@@H](Nc2n[nH]c3nccc(-c4ccc(CNC(=O)c5nc6c(s5)CCCC6)c(F)c4)c23)CN1C(=O)N(C)C [Example 415, N-{[4-(3-{[(3R,6S)-1-(dimethylcarbamoyl)-6-methylpiperidin-3-yl]amino}-1H-pyrazolo[3,4-b]pyridin-4-yl)-2-fluorophenyl]methyl}-4,5,6,7-tetrahydro-1,3-benzothiazole-2-carboxamide] |
